Laboratory results published in patent US20250099423A1, “PIPERAZINE-BASED AGONISTS OF LFA-1 AND VLA-4” (Texas Heart Institute, priority 2021, published 2025).

Legend:
[1] = biological target: T1, LFA-1 (Homo sapiens, UniProt P05107+P20701); experiment: Static cell adhesion assay, HSB cells on ICAM-1 (αLβ2/ICAM-1; LFA-1); assay type: cell-based; details: Dose 3 μM, compound and THI0349 at the same concentration; ratio >1 = more potent agonist
T1 construct: The Jurkat (VCAM-1 assays) and HSB (ICAM-1 assays) cell lines were obtained from American Type Culture Collection; endogenous in cells; host or cells: HSB cells (ATCC)
Method: (§1) For in vitro cell adhesion assays, compounds were dissolved in DMSO to make a series of stock solutions such that a 1:100 dilution in assay buffer would yield the desired final working concentrations in 1% DMSO (vehicle). Human VCAM-1 and ICAM-1 were purchased from R&D Systems (Minneapolis, MN). The Jurkat (VCAM-1 assays) and HSB (ICAM-1 assays) cell lines were obtained from American Type Culture Collection (Manassas, VA) and were maintained in recommended culture media.
(§2) Assays were performed as previously described in 1. Vanderslice, P., Woodside, D. G., Caivano, A. R., Decker, E. R., Munsch, C. L., Sherwood, S. J., Lejeune, W. S., Miyamoto, Y. J., McIntyre, B. W., Tilton, R. G., and Dixon, R. A. (2010) Potent in vivo suppression of inflammation by selectively targeting the high affinity conformation of integrin alpha4beta1. Biochem Biophys Res Commun 400, 619-624; and 2. Vanderslice, P., Biediger, R. J., Woodside, D. G., Brown, W. S., Khounlo, S., Warier, N. D., Gundlach, C. W. t., Caivano, A. R., Bornmann, W. G., Maxwell, D. S., McIntyre, B. W., Willerson, J. T., and Dixon, R. A. (2013) Small molecule agonist of very late antigen-4 (VLA-4) integrin induces progenitor cell adhesion. J Biol Chem 288, 19414-19428. VCAM-1 or ICAM-1 ligand in 50 μL of 50 mM Tris-HCl (pH 7.4), 150 mM NaCl, (TBS) was added to wells of a 96-well plate and allowed to coat overnight at 4° C. To maximize the window to evaluate agonist activity, a sub-optimal coating concentration of ligand was used, typically between 0.5 and 5 μg/mL in 50 μL TBS for VCAM-1 and ICAM-1 respectively. This ligand concentration corresponded approximately to that which would yield≤ 5% adhesion as determined by dose-response curves. Briefly, 2×10^6 cells were labeled for 30 minutes with calcein-AM (Molecular Probes), washed, resuspended in binding buffer, and added to triplicate wells of ligand-coated plates (2×10^5 cells/well) that had been blocked with 2% BSA. After a 30-minute incubation at 37° C., the plates were washed 3 times with binding buffer, the adherent cells were lysed, and fluorescence was measured on a Tecan Safire^2 plate reader. The binding buffer was PBS with 1 mM MgCl2, 50% FBS for α4β1/VCAM-1 assays and PBS with 2 mM MgCl2, 5 mM EGTA, 50% FBS for αLβ2/ICAM-1 assays. EC50 is defined as the concentration of compound required to achieve 50% of the maximal response.
THI0019 and THI0349 (average 11 μM) reported values here were obtained under the assay conditions reported herein and ran higher in the presence of serum than those values under different assay conditions. […] Relative to THI0019 (average 33 μM) as a control against CS1, the ratio of (compound activity/control) is as follows: Group I< or =1. Group II at least a ratio of >1 up to 2× that of THI0019 ran on the same plate; Group III is >2× of THI0019 but less than 5×; and Group IV>5× of THI0019 (with an upper limit of approximately 200 mM). In relation to LAD (Leukocyte Adhesion Deficiency), LFA-1 ratios are determined by dividing the relative fluorescence units (RFU) of each compound over that of the reference standard of THI0349, (RFU Compound/RFU of THI0349). Against LFA-1, the signal for THI0349 at 3 μM was compared to the claimed compounds at the same concentration.

[2] = biological target: T2, α4β1/VCAM-1 (Homo sapiens, UniProt P05556+P13612); experiment: Static cell adhesion assay, Jurkat cells on VCAM-1 (α4β1/VCAM-1); assay type: cell-based; details: ratio compound activity/control THI0019 (average 33 μM) run on the same plate
T2 construct: The Jurkat (VCAM-1 assays) and HSB (ICAM-1 assays) cell lines were obtained from American Type Culture Collection; endogenous in cells; host or cells: Jurkat cells (ATCC)
Method: as §1, §2

T1 sequence (P20701 26-1170): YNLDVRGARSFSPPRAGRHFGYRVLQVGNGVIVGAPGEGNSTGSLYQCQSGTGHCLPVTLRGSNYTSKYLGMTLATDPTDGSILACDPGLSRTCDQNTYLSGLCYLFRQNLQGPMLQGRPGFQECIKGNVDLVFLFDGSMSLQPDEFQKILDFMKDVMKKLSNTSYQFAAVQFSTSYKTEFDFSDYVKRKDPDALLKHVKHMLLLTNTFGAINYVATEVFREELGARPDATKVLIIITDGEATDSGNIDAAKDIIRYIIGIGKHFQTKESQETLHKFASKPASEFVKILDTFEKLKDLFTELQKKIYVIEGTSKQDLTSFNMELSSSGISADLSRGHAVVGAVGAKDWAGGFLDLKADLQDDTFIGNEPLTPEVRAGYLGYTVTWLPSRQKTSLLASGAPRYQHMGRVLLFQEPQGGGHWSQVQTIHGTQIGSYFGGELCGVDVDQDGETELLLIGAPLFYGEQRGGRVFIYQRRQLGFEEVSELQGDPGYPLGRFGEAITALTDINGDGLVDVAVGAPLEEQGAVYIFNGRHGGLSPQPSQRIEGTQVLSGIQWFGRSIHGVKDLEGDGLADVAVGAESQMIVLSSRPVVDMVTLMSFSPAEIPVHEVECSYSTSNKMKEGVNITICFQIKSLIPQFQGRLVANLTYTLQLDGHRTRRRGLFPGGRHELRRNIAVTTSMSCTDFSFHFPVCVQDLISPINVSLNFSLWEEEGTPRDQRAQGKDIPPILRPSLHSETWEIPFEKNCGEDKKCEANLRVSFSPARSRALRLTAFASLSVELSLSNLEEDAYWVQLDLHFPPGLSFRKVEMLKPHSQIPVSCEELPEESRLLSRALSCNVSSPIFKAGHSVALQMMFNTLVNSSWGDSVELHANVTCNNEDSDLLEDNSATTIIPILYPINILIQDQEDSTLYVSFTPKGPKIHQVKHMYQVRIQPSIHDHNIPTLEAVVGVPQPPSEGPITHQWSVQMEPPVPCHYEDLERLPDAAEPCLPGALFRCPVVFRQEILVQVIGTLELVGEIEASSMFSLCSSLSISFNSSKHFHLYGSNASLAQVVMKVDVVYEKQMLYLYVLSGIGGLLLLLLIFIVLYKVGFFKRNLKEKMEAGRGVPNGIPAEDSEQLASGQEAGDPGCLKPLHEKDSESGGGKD
T1 sequence (P05107 23-769): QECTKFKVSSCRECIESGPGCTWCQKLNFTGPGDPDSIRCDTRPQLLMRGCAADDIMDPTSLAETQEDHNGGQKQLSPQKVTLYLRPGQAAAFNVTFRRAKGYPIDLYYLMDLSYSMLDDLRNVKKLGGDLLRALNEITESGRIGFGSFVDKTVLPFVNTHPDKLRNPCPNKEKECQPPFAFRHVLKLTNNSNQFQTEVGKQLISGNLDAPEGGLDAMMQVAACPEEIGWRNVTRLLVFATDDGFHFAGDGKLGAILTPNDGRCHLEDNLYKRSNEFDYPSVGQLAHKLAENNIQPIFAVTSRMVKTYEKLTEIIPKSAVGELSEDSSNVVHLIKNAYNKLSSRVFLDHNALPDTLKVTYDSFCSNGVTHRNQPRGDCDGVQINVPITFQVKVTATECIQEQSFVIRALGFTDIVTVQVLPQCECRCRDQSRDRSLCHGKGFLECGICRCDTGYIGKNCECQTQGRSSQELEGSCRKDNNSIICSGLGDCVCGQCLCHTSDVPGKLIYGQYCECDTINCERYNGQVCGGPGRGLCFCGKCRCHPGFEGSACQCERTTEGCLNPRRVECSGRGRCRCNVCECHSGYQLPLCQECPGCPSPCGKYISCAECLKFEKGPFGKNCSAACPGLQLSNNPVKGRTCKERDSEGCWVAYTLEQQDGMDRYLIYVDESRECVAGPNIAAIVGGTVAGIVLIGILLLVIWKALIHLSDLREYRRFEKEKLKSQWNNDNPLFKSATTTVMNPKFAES
T2 sequence (P13612 34-1032): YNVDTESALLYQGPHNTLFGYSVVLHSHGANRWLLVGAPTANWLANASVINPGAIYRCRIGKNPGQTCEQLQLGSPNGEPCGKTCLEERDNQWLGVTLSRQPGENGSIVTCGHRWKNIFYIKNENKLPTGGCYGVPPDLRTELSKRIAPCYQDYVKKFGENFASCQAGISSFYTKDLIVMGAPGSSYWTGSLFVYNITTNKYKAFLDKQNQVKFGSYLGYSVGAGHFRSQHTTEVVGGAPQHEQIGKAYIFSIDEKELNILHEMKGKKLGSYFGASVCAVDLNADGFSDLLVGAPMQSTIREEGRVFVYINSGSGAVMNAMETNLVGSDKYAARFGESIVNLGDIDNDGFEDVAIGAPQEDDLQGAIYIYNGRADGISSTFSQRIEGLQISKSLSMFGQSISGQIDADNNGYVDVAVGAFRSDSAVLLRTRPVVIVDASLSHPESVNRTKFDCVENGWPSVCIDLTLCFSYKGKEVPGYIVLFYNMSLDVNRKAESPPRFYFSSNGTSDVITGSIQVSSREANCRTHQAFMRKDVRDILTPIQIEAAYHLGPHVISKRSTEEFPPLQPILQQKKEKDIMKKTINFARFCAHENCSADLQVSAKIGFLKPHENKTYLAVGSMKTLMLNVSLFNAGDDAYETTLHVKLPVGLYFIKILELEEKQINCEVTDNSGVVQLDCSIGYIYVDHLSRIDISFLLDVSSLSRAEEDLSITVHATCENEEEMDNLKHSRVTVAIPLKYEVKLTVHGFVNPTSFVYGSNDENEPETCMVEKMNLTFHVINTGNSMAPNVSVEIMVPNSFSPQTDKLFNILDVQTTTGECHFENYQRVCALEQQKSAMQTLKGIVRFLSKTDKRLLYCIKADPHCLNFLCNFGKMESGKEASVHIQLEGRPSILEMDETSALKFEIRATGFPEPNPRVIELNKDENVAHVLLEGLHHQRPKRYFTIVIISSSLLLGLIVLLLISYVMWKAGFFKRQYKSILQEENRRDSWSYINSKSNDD
T2 sequence (P05556 21-798): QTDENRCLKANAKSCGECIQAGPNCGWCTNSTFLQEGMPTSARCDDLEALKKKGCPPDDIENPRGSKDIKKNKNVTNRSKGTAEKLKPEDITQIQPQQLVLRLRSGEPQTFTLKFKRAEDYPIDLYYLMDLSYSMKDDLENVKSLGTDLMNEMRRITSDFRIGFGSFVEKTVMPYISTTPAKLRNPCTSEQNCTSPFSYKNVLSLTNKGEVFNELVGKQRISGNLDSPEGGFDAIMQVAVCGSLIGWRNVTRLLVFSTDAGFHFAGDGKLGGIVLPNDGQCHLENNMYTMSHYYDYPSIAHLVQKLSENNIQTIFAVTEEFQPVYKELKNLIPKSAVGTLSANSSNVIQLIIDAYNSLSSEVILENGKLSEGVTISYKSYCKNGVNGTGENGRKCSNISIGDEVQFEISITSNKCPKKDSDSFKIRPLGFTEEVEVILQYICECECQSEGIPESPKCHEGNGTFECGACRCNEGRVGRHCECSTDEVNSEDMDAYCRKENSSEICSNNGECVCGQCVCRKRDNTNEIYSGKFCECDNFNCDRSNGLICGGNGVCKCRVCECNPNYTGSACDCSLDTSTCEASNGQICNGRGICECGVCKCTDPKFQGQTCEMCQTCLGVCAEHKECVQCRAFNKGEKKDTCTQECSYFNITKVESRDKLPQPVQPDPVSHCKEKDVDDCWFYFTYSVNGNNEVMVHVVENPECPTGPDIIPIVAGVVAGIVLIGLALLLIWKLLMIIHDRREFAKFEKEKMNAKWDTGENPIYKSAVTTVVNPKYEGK

SMILES | LAD Raw Fluorescence Units against LFA-1; Ratio of raw counts Compound/THI0349 [1] | Average Ratio Compound to THI0019 (Activity against CS1) [2]
COc1ccc(CN(Cc2ccc(OC)cc2)C(=O)CN2CCN(Cc3cccc(OC)c3)CC2=O)cc1 [N,N-bis(4-methoxybenzyl)-2-(4-(3-methoxybenzyl)-2-oxopiperazin-1-yl)acetamide] | 1.1 fold increased response | Group IV (Group IV>5× of THI0019 (with an upper limit of approximately 200 mM))
COc1ccc(CN(Cc2ccc(N(C)C)cc2)C(=O)CN2CCN(C(=O)OCc3ccccc3)CC2)cc1 [benzyl 4-(2-((4-(dimethylamino)benzyl)(4-methoxybenzyl)amino)-2-oxoethyl)piperazine-1-carboxylate] | 1.2 fold increased response | Group III (Group III is >2× of THI0019 but less than 5×)
COc1cccc(CN(Cc2cccc(OC)c2)C(=O)CN2CCN(C(=O)OCc3ccccc3)CC2)c1 [benzyl 4-(2-(bis(3-methoxybenzyl)amino)-2-oxoethyl)piperazine-1-carboxylate] | 1.42 fold increased response | Group I (Group I< or =1)
O=C(CN1CCN(C(=O)OCc2ccccc2)CC1)N(Cc1ccc(O)cc1)Cc1ccc(O)cc1 [benzyl 4-(2-(bis(4-hydroxybenzyl)amino)-2-oxoethyl)piperazine-1-carboxylate] | 0.3 fold response | Group I (Group I< or =1)
COc1ccc(CN(Cc2ccc(OC)cc2)C(=O)CCCCN2CCN(C(=O)OCc3ccccc3)CC2)cc1 [benzyl 4-(5-(bis(4-methoxybenzyl)amino)-5-oxopentyl)piperazine-1-carboxylate] | 4.3 fold increased response | Group II (Group II at least a ratio of >1 up to 2× that of THI0019 ran on the same plate)
COc1cccc(CN(Cc2cccc(OC)c2)C(=O)OCCN2CCN(CCOC(=O)N(Cc3cccc(OC)c3)Cc3cccc(OC)c3)CC2)c1 [piperazine-1,4-diylbis(ethane-2,1-diyl) bis(bis(3-methoxybenzyl)carbamate)] | 4.7 fold increased response | Group I (Group I< or =1)

More lines, main results first:

LAD Raw Fluorescence Units against LFA-1; Ratio of raw counts Compound/THI0349 [1] | SMILES | Average Ratio Compound to THI0019 (Activity against CS1) [2]
0.5 fold response | COc1ccc(CN(Cc2ccc(OC)cc2)C(=O)CN2CCN(C(=O)Cc3cccc(OC)c3)CC2=O)cc1 [N,N-bis(4-methoxybenzyl)-2-(4-(2-(3-methoxyphenyl)acetyl)-2-oxopiperazin-1-yl)acetamide] | Group III (Group III is >2× of THI0019 but less than 5×)
1.2 fold increased response | COc1ccc(CN(Cc2ccc(N(C)C)cc2)C(=O)CN2CCN(C(=O)c3cccc(OC)c3)CC2=O)cc1 [N-(4-(dimethylamino)benzyl)-2-(4-(3-methoxybenzoyl)-2-oxopiperazin-1-yl)-N-(4-methoxybenzyl)acetamide] | Group IV (Group IV>5× of THI0019 (with an upper limit of approximately 200 mM))
1.3 fold increased response | COc1ccc(CN(Cc2ccc(O)cc2)C(=O)CN2CCN(C(=O)OCc3ccccc3)CC2)cc1 [benzyl 4-(2-((4-hydroxybenzyl)(4-methoxybenzyl)amino)-2-oxoethyl)piperazine-1-carboxylate] | Group II (Group II at least a ratio of >1 up to 2× that of THI0019 ran on the same plate)
3.3 fold increased response | COc1ccc(CN(Cc2ccc(OC)cc2)C(=O)CN2CCN(C(=O)OCc3ccccc3)CC2)cc1 [benzyl 4-(2-(bis(4-methoxybenzyl)amino)-2-oxoethyl)piperazine-1-carboxylate] | Group II (Group II at least a ratio of >1 up to 2× that of THI0019 ran on the same plate)
3 fold increased response | COc1ccc(CN(Cc2ccc(OC)cc2)C(=O)CCCN2CCN(C(=O)OCc3ccccc3)CC2)cc1 [benzyl 4-(4-(bis(4-methoxybenzyl)amino)-4-oxobutyl)piperazine-1-carboxylate] | Group I (Group I< or =1)
3.9 fold increased response | COc1cccc(CN(Cc2cccc(OC)c2)C(=O)CCCCN2CCN(C(=O)OCc3ccccc3)CC2)c1 [benzyl 4-(5-(bis(3-methoxybenzyl)amino)-5-oxopentyl)piperazine-1-carboxylate] | Group II (Group II at least a ratio of >1 up to 2× that of THI0019 ran on the same plate)
0.9 fold response | O=C(CCCCN1CCN(C(=O)OCc2ccccc2)CC1)N(Cc1cccs1)Cc1cccs1 [benzyl 4-(5-(bis(thiophen-2-ylmethyl)amino)-5-oxopentyl)piperazine-1-carboxylate] | Group I (Group I< or =1)
